Measurements as given in patent US9321770B2, “Crystals of pyrroloquinolinequinone sodium salts” (MITSUBISHI GAS CHEMICAL COMPANY, INC., priority 2009, dated 2016).
Structures can show the parent of a compound that is named as a salt.

Assay: Thermal analysis: thermogravimetry (TG) and differential thermal analysis (DSC)
Assay type: physicochemical
Conditions: under air flow; for thermal stability of the solids (thermal analysis): temperature increased at 10° C./minute
Experimental: The obtained solids were subjected to thermogravimetry (TG) and differential thermal analysis (DSC) using Thermo plus EVO TG8120 manufactured by Rigaku Corporation. The temperature was increased under air flow at a rate of 10° C./minute.

Structure (SMILES): O=C(O)c1cc(C(=O)O)c2c(n1)C(=O)C(=O)c1cc(C(=O)O)[nH]c1-2 [Example 2, pyrroloquinoline quinone disodium salt]
- temperature up to which there was no change (except evaporation of water at about 100° C.) (10° C./minute): 270 °C
- thermal stability of the solids (thermal analysis) (disodium salt): very stable

Structure (SMILES): O=C(O)c1cc(C(=O)O)c2c(n1)C(=O)C(=O)c1cc(C(=O)O)[nH]c1-2 [Comparative Example 2, PQQ disodium salt]
- thermal stability of the solids (thermal analysis) (disodium salt): low thermal stability

Structure (SMILES): O=C(O)c1cc(C(=O)O)c2c(n1)C(=O)C(=O)c1cc(C(=O)O)[nH]c1-2 [Example 4, pyrroloquinoline quinone trisodium salt]
- thermal stability of the solids (thermal analysis) (trisodium salt): very high thermal stability

Structure (SMILES): O=C(O)c1cc(C(=O)O)c2c(n1)C(=O)C(=O)c1cc(C(=O)O)[nH]c1-2 [Comparative Example 1, PQQ disodium salt]
- temperature from which reduction in the weight was observed (10° C./minute): about 30 °C
- thermal stability of the solids (thermal analysis) (disodium salt): unstable
